Results as given in patent publication US20130123319A1, “Medthod of Treating a systemic inflammatory disorder and damaged internal tissues” (priority 2011, published 2013).
Where two headings read alike, the source gives them in different places.

Experiments:
[1] = system: Myasthenia Gravis without Thymoma; assay: Case report: patient with Myasthenia Gravis given intravenous nutritional infusion; format: in vivo, human; settings: day 5 of the hospitalization
Protocol: In 1990 I began to treat a patient with Myasthenia Gravis without Thymoma, an autoimmune disorder, which causes a decrease in the availability of Acetylcholine at the muscle endplate. Pyridostigmine, which increases the amount of Acetylcholine available at the endplate, and later Prednisone, was added for control of their myasthenia. The later acts by reducing the inflammatory response at the muscle endplate. In 1992 they underwent a bowel operation for correction of an enterorectal fistula and was unable to eat orally or gastrically to be fed. They were put on the standardized intravenous nutritional protocol in the hospital in which I worked, which included 3% Glycerin plus 3% Amino Acids, (see Table 1) at a rate of 100 ccs/hour. This was given for 6 days. There was no change in their Myasthenia Gravis. Twelve days later they were readmitted with abdominal pain and the same IV nutrition was administered. On day 5 of the hospitalization they developed a cholinergic crisis, which was relieved by Atropine. Pyridostigmine and Prednisone were discontinued. […] They were readmitted to the hospital 4 years later because of difficulty swallowing and again was given intravenous 3% Glycerin and 3% Amino Acids. […]

[2] = system: Behcet's Disease; assay: Case reports: patients with exacerbation of Behcet's Disease; format: in vivo, human
From the text: Behcet's Syndrome is a worldwide disorder that seems to be more severe and more common along the Silk Route and in Japan.
This happened back in the year 2000.

[3] = system: bacteria; settings: virus specimens; more potent when mixed with serum; cited from earlier work
[4] = in vivo, cited from earlier work

In the case of CN1[C@@H]2CC[C@H]1C[C@@H](OC(=O)C(CO)c1ccccc1)C2 (some centres unmarked) [Atropine], the cholinergic crisis [1] is reported as “relieved”.
In the case of OCC(O)CO [Glycerin], the “rate of improvement in autoimmune diseases, especially Behcet's Disease” value ([2]; inventor's review of the cases) is given as “quick or rapid improvement”, the “central nervous system involvement” value ([2]; one patient with neuro-Behcet's disease) is given as “improved central nervous system involvement rapidly” and the “bacteria in the specimens” value [3] is given as “reduced bacteria”. For the same compound, the toxicity [4] was “low toxicity” and the toxicity ([4]; listed as Sterilized Glycerin) was “non-toxic”.
With C[C@]12C=CC(=O)C=C1CC[C@@H]1[C@@H]2C(=O)C[C@@]2(C)[C@H]1CC[C@]2(O)C(=O)CO [Prednisone, reference compound] the “response of Behcet's exacerbation” value ([2]; eleven patients, high dose) was “failed to respond” and the “response of Behcet's exacerbations” value ([2]; over 20 patients since 2000, high doses) was “usually responded”.
